Laboratory results from ChEMBL document CHEMBL5465560, “Selectivity Literature for EUbOPEN Chemogenomic Library” (2024).

How the values were obtained:
[1] = biological target: Vascular endothelial growth factor receptor 3 (Homo sapiens, UniProt P35916); assay: Selectivity interaction (Upstate Kinase Profiler service (Millipore)) EUB0000056c FLT4; settings: at 1 µM
[2] = biological target: T1, Ankyrin repeat and protein kinase domain-containing protein 1 (Homo sapiens) (UniProt Q8NFD2); assay: Selectivity interaction (KinomeScan (DiscoverX)) EUB0000655a ANKK1; settings: at 10 µM
T1 sequence (whole entry): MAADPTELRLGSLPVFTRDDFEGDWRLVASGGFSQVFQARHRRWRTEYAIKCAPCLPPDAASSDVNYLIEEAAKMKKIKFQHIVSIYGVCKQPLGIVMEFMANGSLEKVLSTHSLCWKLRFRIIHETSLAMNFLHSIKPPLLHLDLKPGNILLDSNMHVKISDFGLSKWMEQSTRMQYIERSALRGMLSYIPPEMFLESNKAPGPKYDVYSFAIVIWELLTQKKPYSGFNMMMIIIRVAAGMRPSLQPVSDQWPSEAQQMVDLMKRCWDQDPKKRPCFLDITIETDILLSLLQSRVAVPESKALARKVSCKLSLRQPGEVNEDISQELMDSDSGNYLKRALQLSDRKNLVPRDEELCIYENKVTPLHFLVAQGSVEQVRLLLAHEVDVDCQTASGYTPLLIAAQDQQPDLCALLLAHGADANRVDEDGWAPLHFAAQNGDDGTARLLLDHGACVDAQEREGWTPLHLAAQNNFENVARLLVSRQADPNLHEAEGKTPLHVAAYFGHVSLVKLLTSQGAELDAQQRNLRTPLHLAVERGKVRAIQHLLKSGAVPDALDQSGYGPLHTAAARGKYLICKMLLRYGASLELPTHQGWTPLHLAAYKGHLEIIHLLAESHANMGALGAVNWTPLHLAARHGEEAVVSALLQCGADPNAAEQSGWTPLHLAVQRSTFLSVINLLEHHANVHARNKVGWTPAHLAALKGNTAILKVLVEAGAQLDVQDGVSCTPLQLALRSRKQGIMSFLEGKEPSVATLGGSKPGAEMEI

[3] = biological target: Calcium/calmodulin-dependent protein kinase type II subunit alpha (Homo sapiens, UniProt Q9UQM7); assay: Selectivity interaction (ProQinase) EUB0000171b CAMK2A
Calcium/calmodulin-dependent protein kinase type II subunit alpha, sequence (Q9UQM7 whole entry): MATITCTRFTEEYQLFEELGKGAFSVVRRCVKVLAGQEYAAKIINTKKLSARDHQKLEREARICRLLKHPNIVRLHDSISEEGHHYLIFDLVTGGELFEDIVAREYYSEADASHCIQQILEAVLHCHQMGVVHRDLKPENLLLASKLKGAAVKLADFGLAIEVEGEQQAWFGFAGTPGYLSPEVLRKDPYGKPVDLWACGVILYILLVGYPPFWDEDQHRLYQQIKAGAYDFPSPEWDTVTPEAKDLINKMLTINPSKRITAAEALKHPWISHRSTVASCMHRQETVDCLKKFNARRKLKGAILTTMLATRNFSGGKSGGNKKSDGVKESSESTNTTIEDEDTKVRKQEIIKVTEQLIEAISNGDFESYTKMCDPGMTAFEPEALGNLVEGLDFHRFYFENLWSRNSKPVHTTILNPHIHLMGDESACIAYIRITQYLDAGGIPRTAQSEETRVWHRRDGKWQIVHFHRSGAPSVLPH

[4] = tested on: Epidermal growth factor receptor (Homo sapiens), P00533 [UNDEFINED MUTATION]; assay: Selectivity interaction (KinomeScan (DiscoverX)) EUB0001079a EGFR; settings: at 1 µM
[5] = biological target: Mitogen-activated protein kinase kinase kinase kinase 1 (Homo sapiens) (UniProt Q92918); assay: Selectivity interaction (KinomeScan (DiscoverX)) EUB0001079a MAP4K1; settings: at 1 µM
[6] = biological target: T2, Diacylglycerol kinase eta (Homo sapiens) (UniProt Q86XP1); assay: Selectivity interaction (Kinase panel (KiNativ target engagement assay in Jurkat cells)) EUB0001635a DGKH; type: cell-based; settings: Selectivity number of off-targets 0.0, Selectivity number of targets 233.0, Source Knowledge https://www.sciencedirect.com/science/article/pii/S2451945619300674?via%3Dihub, at 1 µM
T2 sequence (whole entry): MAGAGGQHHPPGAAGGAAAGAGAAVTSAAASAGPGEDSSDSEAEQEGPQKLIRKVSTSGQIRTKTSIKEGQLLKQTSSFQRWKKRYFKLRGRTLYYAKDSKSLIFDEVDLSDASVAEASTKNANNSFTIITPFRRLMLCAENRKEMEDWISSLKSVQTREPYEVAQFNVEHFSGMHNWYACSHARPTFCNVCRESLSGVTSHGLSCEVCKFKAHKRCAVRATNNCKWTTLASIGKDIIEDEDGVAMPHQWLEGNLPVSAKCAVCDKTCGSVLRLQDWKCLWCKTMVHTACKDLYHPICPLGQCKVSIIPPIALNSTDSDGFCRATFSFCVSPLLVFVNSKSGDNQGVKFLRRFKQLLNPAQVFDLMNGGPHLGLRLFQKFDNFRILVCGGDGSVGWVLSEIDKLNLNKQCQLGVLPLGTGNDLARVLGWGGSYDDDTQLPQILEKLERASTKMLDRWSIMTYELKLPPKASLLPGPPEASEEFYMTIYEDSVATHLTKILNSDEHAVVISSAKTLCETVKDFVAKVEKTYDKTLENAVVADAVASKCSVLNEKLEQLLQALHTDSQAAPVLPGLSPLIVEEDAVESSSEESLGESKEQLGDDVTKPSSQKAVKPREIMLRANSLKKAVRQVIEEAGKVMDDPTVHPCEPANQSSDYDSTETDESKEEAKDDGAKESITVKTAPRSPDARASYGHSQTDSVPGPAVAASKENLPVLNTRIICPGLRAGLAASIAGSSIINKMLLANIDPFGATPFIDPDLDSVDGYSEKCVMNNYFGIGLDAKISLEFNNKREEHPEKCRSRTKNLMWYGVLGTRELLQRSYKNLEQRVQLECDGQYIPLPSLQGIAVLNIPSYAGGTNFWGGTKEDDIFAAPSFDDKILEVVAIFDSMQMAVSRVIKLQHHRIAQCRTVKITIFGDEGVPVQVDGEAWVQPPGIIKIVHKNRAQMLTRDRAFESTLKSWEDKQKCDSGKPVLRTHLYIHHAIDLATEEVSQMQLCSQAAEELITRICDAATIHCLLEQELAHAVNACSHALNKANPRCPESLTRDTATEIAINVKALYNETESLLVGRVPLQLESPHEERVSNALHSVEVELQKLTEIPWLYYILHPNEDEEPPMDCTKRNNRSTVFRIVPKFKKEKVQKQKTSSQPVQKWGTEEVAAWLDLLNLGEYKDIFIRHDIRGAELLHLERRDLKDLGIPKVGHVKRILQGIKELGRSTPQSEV

[7] = biological target: Epidermal growth factor receptor (Homo sapiens, UniProt P00533)
Epidermal growth factor receptor, sequence (P00533 whole entry): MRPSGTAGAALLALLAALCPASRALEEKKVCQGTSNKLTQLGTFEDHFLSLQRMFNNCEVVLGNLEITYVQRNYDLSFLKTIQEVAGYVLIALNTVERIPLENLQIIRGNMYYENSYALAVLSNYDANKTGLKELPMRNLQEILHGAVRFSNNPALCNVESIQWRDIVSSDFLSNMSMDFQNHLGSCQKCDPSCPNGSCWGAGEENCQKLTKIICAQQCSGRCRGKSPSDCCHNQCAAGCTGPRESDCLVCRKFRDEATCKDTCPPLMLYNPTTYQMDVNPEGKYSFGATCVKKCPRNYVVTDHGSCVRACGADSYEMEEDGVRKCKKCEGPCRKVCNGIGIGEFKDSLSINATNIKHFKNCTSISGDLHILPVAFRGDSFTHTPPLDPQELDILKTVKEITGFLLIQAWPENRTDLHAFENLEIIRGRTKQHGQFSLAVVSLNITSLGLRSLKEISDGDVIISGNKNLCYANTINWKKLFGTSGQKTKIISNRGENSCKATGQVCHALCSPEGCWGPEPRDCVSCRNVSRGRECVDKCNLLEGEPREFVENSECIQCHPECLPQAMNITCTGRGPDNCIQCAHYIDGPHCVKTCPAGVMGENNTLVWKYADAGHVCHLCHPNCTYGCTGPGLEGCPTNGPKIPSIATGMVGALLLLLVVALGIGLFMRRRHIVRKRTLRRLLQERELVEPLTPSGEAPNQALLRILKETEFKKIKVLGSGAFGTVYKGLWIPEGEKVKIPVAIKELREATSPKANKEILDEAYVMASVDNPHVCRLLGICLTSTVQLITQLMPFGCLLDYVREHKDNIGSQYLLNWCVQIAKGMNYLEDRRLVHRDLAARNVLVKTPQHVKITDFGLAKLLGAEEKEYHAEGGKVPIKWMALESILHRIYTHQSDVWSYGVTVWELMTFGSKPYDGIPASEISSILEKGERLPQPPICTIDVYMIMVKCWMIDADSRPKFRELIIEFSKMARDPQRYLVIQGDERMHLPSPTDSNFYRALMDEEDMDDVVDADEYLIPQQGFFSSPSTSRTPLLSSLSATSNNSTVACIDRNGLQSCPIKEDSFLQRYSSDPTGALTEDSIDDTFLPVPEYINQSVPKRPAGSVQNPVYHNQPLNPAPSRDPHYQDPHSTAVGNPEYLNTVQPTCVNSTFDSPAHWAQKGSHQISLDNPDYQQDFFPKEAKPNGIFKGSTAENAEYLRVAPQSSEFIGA

[8] = biological target: Calcium/calmodulin-dependent protein kinase type II subunit gamma (Homo sapiens) (UniProt Q13555); assay: Selectivity interaction (KinomeScan (DiscoverX)) EUB0001049a CAMK2G; settings: at 1 µM
[9] = biological target: Receptor tyrosine-protein kinase erbB-2 (Homo sapiens, UniProt P04626); assay: Selectivity interaction (KinomeScan (DiscoverX)) EUB0001049a ERBB2; settings: at 1 µM
Receptor tyrosine-protein kinase erbB-2, sequence (P04626 whole entry): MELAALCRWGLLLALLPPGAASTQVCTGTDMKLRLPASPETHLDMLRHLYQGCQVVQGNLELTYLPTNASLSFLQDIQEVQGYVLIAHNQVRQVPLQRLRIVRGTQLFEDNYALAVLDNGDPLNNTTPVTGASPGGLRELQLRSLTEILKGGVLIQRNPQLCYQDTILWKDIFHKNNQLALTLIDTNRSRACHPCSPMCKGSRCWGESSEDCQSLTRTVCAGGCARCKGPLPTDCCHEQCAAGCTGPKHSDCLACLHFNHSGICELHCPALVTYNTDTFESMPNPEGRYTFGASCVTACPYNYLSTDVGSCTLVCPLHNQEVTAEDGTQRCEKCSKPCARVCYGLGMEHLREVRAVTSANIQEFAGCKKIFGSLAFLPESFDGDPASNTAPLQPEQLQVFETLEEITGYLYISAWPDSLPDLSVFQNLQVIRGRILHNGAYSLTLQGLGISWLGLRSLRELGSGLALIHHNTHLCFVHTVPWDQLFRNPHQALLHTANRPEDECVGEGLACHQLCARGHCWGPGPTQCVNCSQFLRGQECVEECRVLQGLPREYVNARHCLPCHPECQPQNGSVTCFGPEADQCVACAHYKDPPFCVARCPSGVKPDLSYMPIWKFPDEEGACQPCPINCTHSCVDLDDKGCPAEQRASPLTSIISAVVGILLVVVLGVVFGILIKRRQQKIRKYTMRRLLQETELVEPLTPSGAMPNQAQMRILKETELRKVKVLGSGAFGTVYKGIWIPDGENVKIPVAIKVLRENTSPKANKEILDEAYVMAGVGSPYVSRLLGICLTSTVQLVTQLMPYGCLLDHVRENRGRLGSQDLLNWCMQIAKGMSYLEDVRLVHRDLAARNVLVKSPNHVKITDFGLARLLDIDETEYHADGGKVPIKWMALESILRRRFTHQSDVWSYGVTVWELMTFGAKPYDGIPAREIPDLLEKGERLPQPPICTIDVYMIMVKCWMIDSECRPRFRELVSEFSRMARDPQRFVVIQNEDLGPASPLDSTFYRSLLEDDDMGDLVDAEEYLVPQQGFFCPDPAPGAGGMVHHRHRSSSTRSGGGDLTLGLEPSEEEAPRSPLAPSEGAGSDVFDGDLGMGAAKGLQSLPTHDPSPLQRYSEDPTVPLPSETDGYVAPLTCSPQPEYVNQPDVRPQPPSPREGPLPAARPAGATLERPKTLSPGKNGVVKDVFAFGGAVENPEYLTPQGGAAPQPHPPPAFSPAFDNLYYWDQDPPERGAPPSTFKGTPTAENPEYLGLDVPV

[10] = biological target: Mitogen-activated protein kinase 14 (Homo sapiens, UniProt Q16539); assay: Selectivity interaction (Kinase panel (literature)) EUB0001199aCl MAPK14; settings: at 1 µM
Mitogen-activated protein kinase 14, sequence (Q16539 whole entry): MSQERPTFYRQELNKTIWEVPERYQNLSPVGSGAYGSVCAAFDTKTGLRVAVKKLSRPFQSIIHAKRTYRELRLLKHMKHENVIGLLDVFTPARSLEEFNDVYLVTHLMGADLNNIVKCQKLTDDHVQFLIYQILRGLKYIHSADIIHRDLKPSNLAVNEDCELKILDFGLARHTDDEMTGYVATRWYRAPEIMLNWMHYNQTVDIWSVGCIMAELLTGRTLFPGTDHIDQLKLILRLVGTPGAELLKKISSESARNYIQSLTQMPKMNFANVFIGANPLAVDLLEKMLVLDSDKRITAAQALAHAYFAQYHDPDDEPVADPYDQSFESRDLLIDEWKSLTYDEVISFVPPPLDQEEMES

[11] = biological target: Tyrosine-protein kinase Blk (Homo sapiens) (UniProt P51451); assay: Selectivity interaction (Kinase screening (Upstate/Millipore)) EUB0000604a BLK
Tyrosine-protein kinase Blk (Homo sapiens), sequence (P51451 2-505 limits assumed): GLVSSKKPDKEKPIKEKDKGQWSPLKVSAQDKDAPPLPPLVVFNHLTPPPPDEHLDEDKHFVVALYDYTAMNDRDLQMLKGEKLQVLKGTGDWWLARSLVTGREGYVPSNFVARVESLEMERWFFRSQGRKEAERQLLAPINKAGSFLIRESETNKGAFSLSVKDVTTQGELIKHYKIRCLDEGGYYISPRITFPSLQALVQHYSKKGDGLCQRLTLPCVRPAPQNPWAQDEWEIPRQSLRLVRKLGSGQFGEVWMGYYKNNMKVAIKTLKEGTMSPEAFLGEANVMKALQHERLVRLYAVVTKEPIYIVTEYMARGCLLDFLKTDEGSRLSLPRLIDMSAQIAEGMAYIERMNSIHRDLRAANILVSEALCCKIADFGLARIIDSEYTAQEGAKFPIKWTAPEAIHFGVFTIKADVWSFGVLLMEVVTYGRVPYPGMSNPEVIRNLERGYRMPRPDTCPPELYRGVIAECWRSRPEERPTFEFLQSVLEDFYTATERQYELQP

[12] = biological target: Platelet-derived growth factor receptor alpha (Homo sapiens, UniProt P16234); assay: Selectivity interaction (Kinase screening (Upstate/Millipore)) EUB0000604a PDGFRA
Platelet-derived growth factor receptor alpha, sequence (P16234 whole entry): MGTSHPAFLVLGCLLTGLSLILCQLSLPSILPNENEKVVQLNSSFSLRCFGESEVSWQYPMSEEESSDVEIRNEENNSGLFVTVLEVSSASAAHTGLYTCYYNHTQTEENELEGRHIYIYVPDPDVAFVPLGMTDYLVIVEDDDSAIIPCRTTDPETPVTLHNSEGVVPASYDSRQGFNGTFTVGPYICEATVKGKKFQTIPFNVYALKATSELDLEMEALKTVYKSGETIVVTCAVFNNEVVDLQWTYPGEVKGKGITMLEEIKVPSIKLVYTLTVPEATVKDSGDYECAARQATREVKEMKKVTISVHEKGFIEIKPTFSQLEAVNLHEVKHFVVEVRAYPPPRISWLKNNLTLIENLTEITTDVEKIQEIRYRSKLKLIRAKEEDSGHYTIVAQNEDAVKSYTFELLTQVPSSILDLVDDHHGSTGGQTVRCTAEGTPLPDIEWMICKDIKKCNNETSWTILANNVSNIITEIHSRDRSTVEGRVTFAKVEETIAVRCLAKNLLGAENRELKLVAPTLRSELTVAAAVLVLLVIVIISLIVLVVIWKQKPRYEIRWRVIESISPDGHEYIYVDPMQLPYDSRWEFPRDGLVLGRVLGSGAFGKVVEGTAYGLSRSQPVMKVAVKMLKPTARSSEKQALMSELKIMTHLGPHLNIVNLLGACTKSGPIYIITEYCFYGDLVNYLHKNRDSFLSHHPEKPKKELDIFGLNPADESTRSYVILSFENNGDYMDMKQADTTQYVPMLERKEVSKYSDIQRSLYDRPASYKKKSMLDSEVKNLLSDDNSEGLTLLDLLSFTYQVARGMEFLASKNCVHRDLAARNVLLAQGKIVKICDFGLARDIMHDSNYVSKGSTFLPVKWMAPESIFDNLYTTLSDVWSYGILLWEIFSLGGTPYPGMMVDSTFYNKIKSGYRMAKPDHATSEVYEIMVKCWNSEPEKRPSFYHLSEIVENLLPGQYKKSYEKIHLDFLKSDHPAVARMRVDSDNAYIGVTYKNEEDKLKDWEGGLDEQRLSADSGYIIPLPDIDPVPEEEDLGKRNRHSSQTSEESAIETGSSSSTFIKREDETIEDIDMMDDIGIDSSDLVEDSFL

[13] = biological target: Calcium/calmodulin-dependent protein kinase type 1D (Homo sapiens) (UniProt Q8IU85); assay: Selectivity interaction (ActivX KiNativ screen (ex vivo kinase selectivity in human PBMCs)) EUB0001619a CAMK1D; type: cell-based; settings: PBMC, at 1 µM

For `Cc1ccc(-c2ccc3c(ccc4sc5c(c43)NC[C@@H](C)NC5=O)n2)cn1`, the % of inhibition [1] was 40%.
`CN(C)CCOc1ccc(-c2nc(-c3ccncc3)c(-c3ccc4c(c3)CC/C4=N\O)[nH]2)cc1` gave a % of control [2] of 100%.
Compound `C=CC(=O)Nc1cccc(C(=O)Nc2ccc(Nc3cc(-c4[nH]c(SC)nc4C)ccn3)cc2)c1` has a % of control ([3]; at 1 µM) of 90% and a % of control ([3]; at 5 µM) of 90%.
For `Nc1cnc(N2CCc3cc(S(=O)(=O)Nc4c(F)cc(Cl)cc4F)cc(N4CCCC4=O)c32)nc1` [TP-020n], the % of control [4] was 63% and the % of control [5] was 83%.
With `C=CC(=O)Nc1ccc(C(=O)Nc2[nH]nc3c2CN(C(=O)N[C@H](CN(C)C)c2ccccc2)C3(C)C)cc1` the % of engagement [6] was 16.5%.
In the case of `CCc1cccc(CC)c1NC(=O)c1nn(C)c2c1CCc1cnc(Nc3ccc(C(=O)NC4CCN(C)CC4)cc3OC(F)(F)F)nc1-2`, the IC50 [7] is reported as > 10 µM.
Compound `COc1cc(Nc2nc(C)cc(-c3cnn4nc(OC)ccc34)n2)cc(C(F)(F)F)c1` has a % of control [8] of 90% and a % of control [9] of 100%.
With `CN1Cc2nccc(-c3cn(C)nc3-c3ccc(F)cc3)c2C1=O` the % of inhibition [10] was 37%.
In the case of `Cc1cnc(Nc2ccc(F)cc2Cl)nc1-c1c[nH]c(C(=O)N[C@H](CO)c2cccc(Cl)c2)c1`, the % of inhibition [11] is reported as 7% and the % of inhibition [12] is reported as 3%.
`N#Cc1cccc(-c2c[nH]c3ncnc(N4CCOCC4)c23)c1` was tested, and the % of inhibition [13] was 1%.
